Test results reported in patent US10125160B1, “Method of making cobalt and platinum based surfactants and using for cancer therapy” (Umm Al-Qura University, priority 2015, dated 2018).

How the values were obtained:
MCF7 (Breast carcinoma) = experiment: Potential cytotoxicity by SRB assay, MCF7; type: cell-based, human
Protocol: (§1) Potential cytotoxicity of the complex was tested using the method of Skehan et al. (1990). The tumor cell lines: MCF7 (Breast carcinoma), HEPG2 (liver carcinoma), (10^4 cells/well) had been supplied from National Cancer Institute Cairo Egypt, were plated in 96-multiwell plat for 24 h before treatment with the compounds to allow attachment of cell to the wall of the plate.
(§2) Different concentrations of the complexes under test (0, 1, 2.5, Sand 10 μg/ml) were added to the cell-monolayer (parent complex, parent complex with Co, parent complex with Pt). Triplicate wells were prepared for each individual dose. Monolayer cells were incubated with the complex for 48 h at 37 C° and in atmosphere of 5% CO2. After 48 h, Cells were fixed, washed and stained with Sulfurhodamine B stain. Excess stain was washed with acetic acid and attached stain was recovered with Tris EDTA buffer. Color intensity was measured in an ELISA reader. […]
(§3) Cobalt and Platinum benzidinium hydrogen selenite complexes as well as their parent were investigated as potential selective, anticancer drugs. […] The results of the cytotoxic activity on human tumor cell lines were determined according to the dose values of drug exposure for cell lines to reduce survival to 50% (Ic50). The experimental results recorded in Table (5) and plots of surviving fraction versus concentration in μg in FIGS. 2, 3).

HEPG2 (liver carcinoma) = experiment: Potential cytotoxicity by SRB assay, HEPG2; type: cell-based, human
Protocol: as §1, §2, §3

[1] = Surface tension and critical micelle concentration (Du-Nouy tensiometer); type: physicochemical; set-up: PC20: unit not given here
Protocol: Surface tension values of the synthesized complex solutions (parent complex, parent complex with Co, parent complex with Pt) were obtained at 30îC using Du-Nouy Tensiometer (Kruss K6 Type 4851) with a platinum ring. Apparent surface tension was measured about five times for the sample within 2 min interval between each reading. The averages of five determinations were plotted against −log C without any correction. The critical micelle concentration values were determined from the plot of surface tension versus concentration.
Table 4 summarizes the surface-active parameters such as critical micelle concentration (CMC), γCMC, and pC20 (the surfactant concentration required to reduce the surface tension of the solvent by 20 mN/m) determined from the curves of FIG. 1. Values of Γmax (the surface excess concentration of surfactant) and Amin (interfacial area occupied by the surfactant molecules) were calculated using the Gibbs adsorption equation:
Where (δγ/δ log C) is the maximum slope in each case; T is absolute temperature; R=[…] and N is Avogadro's number. The standard free energy of micellization (ΔG°mic) is calculated from the equation: ΔG°mic=RT in CMC (Eq 7)
The standard free energy of adsorption (ΔG°ads) is calculated according to the following equation: ΔG°ads=ΔG°mic−ΠCMCAmin (Eq 8)

[2] = SRB assay, 48 h, dose reducing survival to 50%
[3] = in vitro on the tumor cell line investigated
[4] = calculated using Gibbs adsorption equation

CCCCCCCCCC(=O)Nc1ccc(-c2ccc(N)cc2)cc1.O=[Se](O)O [parent, N-decanoylbenzidinum hydrogen selenite]
MCF7 (IC50) (MCF7 (Breast carcinoma); [2]): −Ve | cytotoxic activity in words, MCF7 (MCF7 (Breast carcinoma); [3]): no effect | HEPG2 (IC50) (HEPG2 (liver carcinoma); [2]): −Ve | cytotoxic activity in words, HEPG2 (HEPG2 (liver carcinoma); [3]): no effect | ΠCMC [1]: 33 mN/m | Amin (interfacial area occupied by surfactant molecules) [1, 4]: 1.80 nm^2 | Γmax × 10^−11 (surface excess concentration) [1, 4]: 9.1 × 10^−11 Mole/cm^2 | ΔGmic (standard free energy of micellization) ([1]; calculated, Eq 7): −27.64 KJ\mol | ΔGads (standard free energy of adsorption) ([1]; calculated, Eq 8): −64.21 KJ\mol | CMC × 10^−3 (critical micelle concentration) ([1]; from plot of surface tension versus concentration): 3.76 × 10^−3 | γCMC ([1]; surface tension at CMC): 39 mN/m | PC20 ([1]; surfactant concentration required to reduce surface tension of solvent by 20 mN/m): 3.50
